{"source": "patent US4060652A", "about": "(priority 1976, dated 1977)", "key": {"[1]": {"tested_on": "straight muscles of the frog abdomen", "experiment": "Isolated straight muscle of frog abdomen, antagonism of acetylcholine", "design": "species or system frog (Rana tempraria)", "from_the_text": "In experiments on isolated straight muscles of the frog abdomen (Rana tempraria) the concentration of Tercuronium, that weakened the action acetylcholine, was 2.0 ± 0.04 × × 10^-7 m/l."}, "[2]": {"tested_on": "nervomuscular conduction, anterior tibial muscle", "experiment": "Nervomuscular block in cats, indirect stimulation of anterior tibial muscle", "type": "in vivo", "experimental": "The preparation was studied in acute experiments on cats, rabbits, mice and pigeons, in experiments on phrenico-diaphragm preparations of rats, and also on the straight muscle of a frog abdomen. The properties of Tercuronium were compared with those of α-tubocurarin and pancuronium.\n(§1) Cats were narcotized (with chloralose, 50 mg per kg body weight, and urethane, 500 mg/kg, intraperitoneally) or decerebrated at the quadrigeminal bodies level. The lungs were ventilated artificially whenever necessary. Contractions of the anterior tibial muscle were recorded in isotonic concitions in response to electric stimulation of the peripheral part of n. peroneus with supramaximum pulses of 0.1 msec at a frequency of 0.1-100 Hz."}, "[3]": {"tested_on": "patients", "experiment": "Surgical operations, second series (intubation and maintenance)", "type": "in vivo, patients (human)", "experimental": "We tried Tercuronium as a muscle relaxant in surgical operations on the abdominal and thoracic organs in 150 patients. The operations were carried out in conditions of intubation narcosis and artificial lung ventilation. Ether, fluorothane, nitrous oxide and barbiturates were used as anesthetics.\nIn the second series of observations (30 operations), Tercuronium was used for both maintaining muscle relaxation and intubation of the trachea. For this purpose, Tercuronium was used intravenously in a dose of 0.25 to 0.3 mg/kg. […] The relaxation continued for about an hour. For a longer relaxation of muscles, a repeated injection of Tercuronium in a dose of 0.05 to 0.08 mg/kg was required."}, "[4]": {"tested_on": "postsynaptic membrane of skeletal muscle", "experiment": "Site of action: close intra-arterial acetylcholine and direct stimulation", "type": "in vivo", "settings": "cats", "experimental": "as §1\nThe blocking effect of Tercuronium is due to its action on the postsynaptic membrane of skeletal muscle."}, "[5]": {"experiment": "Lethality by paralysis of respiratory muscles in mice", "settings": "mouse, in vivo, iv", "from_the_text": "(§2) In experiments on albino mice, the dose of Tercuronium injected into the tail vein, that inhibited the symptom of turning from the lateral position in 50 percent of mice (ED50) was 0.06 mcM/kg (18 experiments); and 50 percent of mice perished from paralysis of the respiratory muscles (LD50) following an injection of 0.09 mcM/kg of Tercuronium."}, "[6]": {"tested_on": "rabbits", "experiment": "Head-drop test in non-narcotized rabbits", "type": "in vivo", "experimental": "In experiments (a total of twenty) on non-narcotized rabbits, the head-drop dose (HDD) was 0.022 ± 0.009 micromole/kg A complete blocking effect developed 1.5 to 2 minutes after administration of Tercuronium and persisted for 3 to 5 minutes. A few minutes later, the animal behaviour normalized. The same effect was attained with 0.18 ± 0.02 micromole/kg of α-tubocurarin (6 experiments) and 0.018 ± 0.001 mcM/kg of pancuronium (6 experiments). The time of onset and the duration of the blocking effect with all the three preparations were the same."}, "[7]": {"tested_on": "sympathetic ganglia", "experiment": "Effect on sympathetic ganglia, third eyelid contraction in cats", "type": "in vivo", "experimental": "(§3) Experiments were carried out on narcotized cats. A peripheral part of the sympathetic column on the neck was stimulated with electric pulses at 5 Hz. The duration of the stimulus was 1 msec, the amplitude 5 V. The contractions of the third eyelid (nictiating membrane) and the arterial (carotid) pressure were recorded with a mercury pressure gauge. We determined the intravenous dose of Tercuronium, α-tubocurarin and pancuronium that decreased the height of contraction of the third eyelid by 50 to 60 percent in conditions of prolonged stimulation of the sympathetic column."}, "[8]": {"experiment": "Effect on sympathetic ganglia, third eyelid contraction in cats", "type": "in vivo", "settings": "cat, in vivo, iv, read-out: ganglioblocking dose as multiple of myoparalytic dose", "experimental": "as §3"}, "[9]": {"tested_on": "M-cholinoreceptors", "experiment": "Depression after intravenous acetylcholine in cats", "type": "in vivo", "settings": "0.1 to 1.0 mcM/kg; acetylcholine 3 mg/kg; three cats", "experimental": "Experiments were carried out on narcotized cats (chloralose and urethane, intraperitoneally)."}, "[10]": {"tested_on": "respiration", "experiment": "Inhibition of respiration in narcotized and decerebrated cats (and rabbits)", "type": "in vivo", "from_the_text": "This developed simultaneously with the block of the nervomuscular conduction in the anterior tibial muscle. […] The same result was obtained in experiments on rabbits. The ratio of LD50 in experiments on rabbits and mice, as specified above, also provides data on the that Tercuronium produces on respiration."}, "[11]": {"tested_on": "rabbits", "experiment": "Allergizing action, Arthus-Sakharov phenomenon in rabbits", "type": "in vivo", "settings": "seven subcutaneous injections at 5-day intervals", "experimental": "In order to study the allergizing action of Tercuronium, we used the Arthus-Sakharov phenomenon. Experiments were carried on three rabbits. Tercuronium was injected to each rabbit in a dose of […] subcutaneously on the left side of the back in a volume of 0.2 to 0.25 ml, and 1 ml of horse serum was injected into the right side of the back (also subcutaneously). We made seven injections at 5-day in tervals. Horse serum alone was injected to the fourth (control) rabbit in the same order."}, "[12]": {"tested_on": "ischio-gastrocnemius conduction", "experiment": "Block of ischio-gastrocnemius conduction in narcotized rabbits", "type": "in vivo", "experimental": "In experiments on narcotized rabbits (chloralose, 50 mg/kg, and urethane, 500 mg/kg, given intravenously) the intravenous dose of Tercuronium that produced complete block of the ischio-gastrocnemius conduction was 0.025 ± 0.005 mcM/kg (five experiments)."}, "[13]": {"tested_on": "albino mice", "experiment": "Inhibition of turning from the lateral position in mice", "type": "in vivo", "from_the_text": "as §2"}, "[14]": {"experiment": "Lethality by paralysis of respiratory muscles in rabbits", "settings": "rabbit, in vivo", "from_the_text": "In another series of experiments, we determined the intravenous dose of the muscle relaxants that caused death of 50% of the animals due to paralysis of the respiratory muscles -- lethal dose 50% (LD50)."}, "[15]": {"tested_on": "blood coagulation and erythrocytes", "experiment": "Effect on blood coagulation rate and resistance of erythrocytes", "type": "in vivo", "settings": "two rabbits, two narcotized cats"}, "[16]": {"tested_on": "pigeons", "experiment": "Paralysis in pigeons", "type": "in vivo"}, "[17]": {"settings": "0.08 micromole per kg intravenous"}}, "note": "Entries after “also recorded” stand apart in the source; their conditions may differ.", "data": [{"compound": "CC[N+](CC)(CC)c1ccc(-c2ccc(-c3ccc([N+](CC)(CC)CC)cc3)cc2)cc1", "note": "[Tercuronium, p,p\"-bis-triethylammonio-n-terphenyl dibenzenesulphonate]", "values": [{"measurement": "contractions produced in the muscle", "setting": "[1]", "result": "did not produce contractions in the muscle"}, {"measurement": "dependence of block on stimulation frequency", "setting": "[2]", "result": "more manifest with increasing frequency of pulse stimuli; also recorded: tetanization of the motor nerve at a frequency of 50 to 100 Hz produces a pessimal reaction in the muscle"}, {"measurement": "influence of other agents on action", "setting": "[2]", "result": "lessened by the action of neostigmin, succinylcholine, decamethonium, and acetylcholine and strengthened by α-tubocurarin"}, {"measurement": "mean duration of effect", "setting": "[2]", "result": "eight"}, {"measurement": "block of nervomuscular conduction", "setting": "[2]; [17]", "result": "95-100%"}, {"measurement": "time to block following injection", "setting": "[2]; [17]", "result": "40 to 60", "unit": "s"}, {"measurement": "time to complete restoration of muscle contractility", "setting": "[2]; after injection", "result": "10 ± 1.5", "unit": "min"}, {"measurement": "dose blocking nervomuscular conduction (95-100 percent)", "setting": "[2]; intravenous, 0.1 Hz", "result": "0.08 ± 0.002", "unit": "micromole per kg"}, {"measurement": "cardiovascular disorders or other complications", "setting": "[3]; 0.25 to 0.3 mg/kg", "result": "not accompanied by cardiovacular disorders or any other complications"}, {"measurement": "duration of relaxation", "setting": "[3]; 0.25 to 0.3 mg/kg intravenous", "result": "about an hour"}, {"measurement": "intubation conditions", "setting": "[3]; 0.25 to 0.3 mg/kg intravenous", "result": "unobstructed intubation"}, {"measurement": "postoperative complications", "setting": "[3]; postoperative period", "result": "no cases of muscle atomia, respiratory insufficiency, or recurarization"}, {"measurement": "efficiency of proserpin as deblocking agent", "setting": "[3]; proserpin", "result": "complete"}, {"measurement": "site of blocking action", "setting": "[4]", "result": "contraction of muscles induced by acetylcholine injected by the close intra-arterial method, was inhibited simultaneously with the block of the nervomuscular condution; also recorded: it contracted in response to direct stimuli"}, {"measurement": "LD50", "setting": "[5]", "result": 0.09, "unit": "µmol/kg"}, {"measurement": "selectivity ratio", "setting": "[5]; read-out: width of the muscle relaxing action (LD50/ED50)", "result": 1.5}, {"measurement": "ED (head drop)", "setting": "[6]; Oryctolagus cuniculus, read-out: head-drop dose (HDD)", "result": "0.022 ± 0.009", "unit": "µmol/kg"}, {"measurement": "time of onset and duration of blocking effect, comparison", "setting": "[6]; all three preparations", "result": "the same"}, {"measurement": "blocking effect compared with pancuronium", "setting": "[6]; rabbits", "result": "somewhat lower than that of pancuronium"}, {"measurement": "blocking effect relative to α-tubocurarin", "setting": "[6]; rabbits", "result": "eight"}, {"measurement": "arterial pressure at ganglioblocking dose", "setting": "[7]", "result": "the arterial pressure dropped as well"}, {"measurement": "selectivity ratio", "setting": "[8]", "result": "10 to 15"}, {"measurement": "depression after intravenous acetylcholine", "setting": "[9]", "result": "did not produce depression"}, {"measurement": "bronchospasm", "setting": "[10]; 200-1000-fold dose, artificial ventilation, cats, same in rabbits", "result": "bronchospasm did not develop"}, {"measurement": "inhibition of respiration by blocking doses, comparison", "setting": "[10]; from LD50 to ED50 ratio", "result": "equally inhibit respiration"}, {"measurement": "effect on respiration", "setting": "[10]; narcotized and decerebrated cats", "result": "respiration was inhibited and stopped by a curare-like paralysis of the diaphragm; also recorded: respiration was restored simultaneously with the restoration of the muscle contraction"}, {"measurement": "local allergic reaction", "setting": "[11]", "result": "no reaction"}, {"measurement": "ED100", "setting": "[12]; Oryctolagus cuniculus, narcotized rabbits, intravenous, five experiments, read-out: dose producing complete block of ischio-gastrocnemius conduction", "result": "0.025 ± 0.005", "unit": "µmol/kg"}, {"measurement": "restoration of muscle contraction by neostigmin", "setting": "[12]; neostigmin 0.1 mg/kg during complete block", "result": "always resulted in immediate and full restoration of the muscle contraction"}, {"measurement": "ED50", "setting": "[13]; Mus musculus, iv", "result": 0.06, "unit": "µmol/kg"}, {"measurement": "myoparalytic action compared with pancuronium and α-tubocurarin", "setting": "[13]; mice", "result": "several times lower than that of pancuronium and several times higher than that of α-tubocurarin"}, {"measurement": "LD50", "setting": "[14]; intravenous", "result": 0.03, "unit": "µmol/kg"}, {"measurement": "selectivity ratio", "setting": "[14]; read-out: LD50 to HDD ratio", "result": 1.4}, {"measurement": "blood coagulation rate and resistance of the erythrocytes", "setting": "[15]", "result": "did not discover any effect"}, {"measurement": "effect in pigeons", "setting": "[16]; 0.2 mcM/kg intravenous", "result": "weak paralysis developed; also recorded: shows the nondepolarizing effect as well"}, {"measurement": "ED50", "setting": "[16]; Columbidae, pigeons, intravenous", "result": 0.2, "unit": "µmol/kg"}]}]}
